From ChEMBL document CHEMBL2169878 (J Med Chem, 2012)
pIC50: −log10 of the molar value. Activity calls are given as the source filed them. No cut-off for these calls is given here.

Key:
Plasmodium falciparum [1] = experiment: Antiplasmodial activity against chloroquine-sensitive Plasmodium falciparum D10 infected in human RBC after 72 hrs by parasite lactate dehydrogenase assay; type: functional, organism-based; settings: D10, 72 h
Salmonella typhimurium [2] = experiment: Mutagenicity against Salmonella typhimurium TA98 assessed as revertants at 3 uM incubated for 90 mins followed by drug washout measured after 2 days relative to positive control; type: toxicity, organism-based; settings: salmonella enterica subsp. enterica serovar typhimurium, 1.5 h
Plasmodium berghei [3] = experiment: Antimalarial activity against Plasmodium berghei ANKA expressing GFP infected in mouse assessed as mean survival days at 30 mg/kg, po administered QD for 3 days (reference value: 6 to 7 days); type: functional
Heart [4] = experiment: Cardiotoxicity against Sprague-Dawley rat Langendorff perfused heart assessed as intraventricular conduction time at 10 uM by electrophysiological analysis (reference value: 13.92 0.42 ms); type: toxicity, tissue-based
Plasmodium falciparum [5] = experiment: Resistance ratio of IC50 for chloroquine-resistant Plasmodium falciparum W2 to IC50 for chloroquine-sensitive Plasmodium falciparum D10; type: functional
Heart [6] = experiment: Cardiotoxicity against Sprague-Dawley rat Langendorff perfused heart assessed as heart rate at 1 uM by electrophysiological analysis (reference value: 236.68 7.83 bpm); type: toxicity, tissue-based
[7] = molecular target: T1, Chloroquine resistance transporter (Plasmodium falciparum) (UniProt Q9N623); experiment: Inhibition of chloroquine-resistant Plasmodium falciparum Dd2 CRT expressed in Xenopus laevis oocyte assessed as inhibition of [3H]chloroquine uptake at 100 uM measured from 1 to 2 hrs
T1 sequence (whole entry): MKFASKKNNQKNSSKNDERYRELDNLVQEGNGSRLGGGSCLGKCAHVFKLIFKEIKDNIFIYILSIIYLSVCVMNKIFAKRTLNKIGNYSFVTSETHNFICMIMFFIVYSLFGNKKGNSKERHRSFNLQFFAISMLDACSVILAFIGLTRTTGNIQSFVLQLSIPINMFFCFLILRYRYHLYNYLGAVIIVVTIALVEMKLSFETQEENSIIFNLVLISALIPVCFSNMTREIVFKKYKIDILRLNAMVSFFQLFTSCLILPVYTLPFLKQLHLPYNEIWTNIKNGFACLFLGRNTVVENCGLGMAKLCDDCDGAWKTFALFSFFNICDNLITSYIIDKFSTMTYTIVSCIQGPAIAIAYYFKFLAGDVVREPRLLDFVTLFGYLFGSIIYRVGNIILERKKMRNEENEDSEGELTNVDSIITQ

[8] = Apparent volume of distribution in CD1 albino mouse at 50 mg/kg, po; type: ADME, organism-based; design: dose 50 mg/kg, route oral; settings: in vivo, read-out: Vc/F
Plasmodium berghei [9] = experiment: Antimalarial activity against Plasmodium berghei ANKA expressing GFP infected in mouse assessed as cure from infection at 30 mg/kg, po administered 24 hrs post-infection measured on day 30; type: functional, organism-based; design: dose 30 mg/kg
Heart [10] = experiment: Cardiotoxicity against Sprague-Dawley rat Langendorff perfused heart assessed as heart rate at 30 uM by electrophysiological analysis (reference value: 236.68 7.83 bpm); type: toxicity, tissue-based
Salmonella typhimurium [11] = experiment: Mutagenicity against Salmonella typhimurium TA98 assessed as revertants at 24 uM incubated for 90 mins followed by drug washout measured after 2 days relative to positive control; type: toxicity, organism-based; settings: salmonella enterica subsp. enterica serovar typhimurium, 1.5 h
Salmonella typhimurium [12] = experiment: Mutagenicity against Salmonella typhimurium TA100 assessed as revertants at 6 uM incubated for 90 mins followed by drug washout measured after 2 days relative to positive control; type: toxicity, organism-based; settings: salmonella enterica subsp. enterica serovar typhimurium, 1.5 h
Salmonella typhimurium [13] = experiment: Mutagenicity against Salmonella typhimurium TA100 assessed as revertants at 24 uM incubated for 90 mins followed by drug washout measured after 2 days relative to positive control; type: toxicity, organism-based; settings: salmonella enterica subsp. enterica serovar typhimurium
Heart [14] = experiment: Cardiotoxicity against Sprague-Dawley rat Langendorff perfused heart assessed as atrioventricular conduction time at 30 uM by electrophysiological analysis (reference value: 42.67 2.29 ms); type: toxicity, tissue-based
Plasmodium berghei [15] = experiment: Antimalarial activity against Plasmodium berghei ANKA expressing GFP infected in mouse assessed as reduction in parasitemia at 30 mg/kg, po administered at 6,24,48 and 72 hrs post-infection measured 24 hrs post-final dosing by flow cytometric analysis; type: functional; design: scale not given: the % may be the effect or the level left
Plasmodium berghei [16] = experiment: Antimalarial activity against Plasmodium berghei ANKA expressing GFP infected in mouse assessed as reduction in parasitemia at 100 mg/kg, po administered 24 hrs post-infection measured 48 hrs post-dosing by flow cytometric analysis; type: functional; design: scale not given: the % may be the effect or the level left
Salmonella typhimurium [17] = experiment: Mutagenicity against Salmonella typhimurium TA100 assessed as revertants at 1.5 uM incubated for 90 mins followed by drug washout measured after 2 days relative to positive control; type: toxicity, organism-based; settings: salmonella enterica subsp. enterica serovar typhimurium, 1.5 h
Heart [18] = experiment: Cardiotoxicity against Sprague-Dawley rat Langendorff perfused heart assessed as intraventricular conduction time at 0.1 uM by electrophysiological analysis (reference value: 13.92 0.42 ms); type: toxicity, tissue-based
Plasmodium falciparum [19] = experiment: Resistance ratio of IC50 for chloroquine-resistant Plasmodium falciparum K1 to IC50 for chloroquine-sensitive Plasmodium falciparum NF54; type: functional
Plasmodium berghei [20] = experiment: Antimalarial activity against Plasmodium berghei ANKA expressing GFP infected in mouse assessed as cure from infection at 50 mg/kg, po administered QD for 3 days measured on day 30; type: functional, organism-based; design: dose 50 mg/kg
[21] = Cytotoxicity against mouse NIH3T3 cells after 24 hrs by neutral red dye uptake assay; type: cell-based; settings: read-out: TC50
Heart [22] = experiment: Cardiotoxicity against Sprague-Dawley rat Langendorff perfused heart assessed as intraventricular conduction time at 1 uM by electrophysiological analysis (reference value: 13.92 0.42 ms); type: toxicity, tissue-based
[23] = Elimination half life in CD1 albino mouse liver at 50 mg/kg, po; type: ADME, organism-based; design: dose 50 mg/kg, route oral; settings: read-out: beta t1/2 (converted)
Heart [24] = experiment: Cardiotoxicity against Sprague-Dawley rat Langendorff perfused heart assessed as cycle length time at 0.1 uM by electrophysiological analysis (reference value: 258.62 8.87 ms); type: toxicity, tissue-based
Salmonella typhimurium [25] = experiment: Mutagenicity against Salmonella typhimurium TA98 assessed as revertants at 48 uM incubated for 90 mins followed by drug washout measured after 2 days relative to positive control; type: toxicity, organism-based; settings: salmonella enterica subsp. enterica serovar typhimurium, 1.5 h
Heart [26] = experiment: Cardiotoxicity against Sprague-Dawley rat Langendorff perfused heart assessed as QT time interval at 1 uM by electrophysiological analysis (reference value: 73.01 4.52 ms); type: toxicity, tissue-based
[27] = Clearance in CD1 albino mouse at 50 mg/kg, po; type: ADME, organism-based; design: dose 50 mg/kg, route oral; settings: in vivo
Plasmodium berghei [28] = experiment: Antimalarial activity against Plasmodium berghei ANKA expressing GFP infected in mouse assessed as reduction in parasitemia at 30 mg/kg, po administered 24 hrs post-infection measured 48 hrs post-dosing by flow cytometric analysis; type: functional; design: scale not given: the % may be the effect or the level left
Plasmodium berghei [29] = experiment: Antimalarial activity against Plasmodium berghei ANKA expressing GFP infected in mouse assessed as mean survival days at 30 mg/kg, po administered at 6,[…],[…] and 72 hrs post-infection (reference value: 6 to 7 days); type: functional
Plasmodium berghei [30] = experiment: Antimalarial activity against Plasmodium berghei ANKA expressing GFP infected in mouse assessed as mean survival days at 30 mg/kg, po administered 24 hrs post-infection (reference value: 6 to 7 days); type: functional
Salmonella typhimurium [31] = experiment: Mutagenicity against Salmonella typhimurium TA98 assessed as revertants at 6 uM incubated for 90 mins followed by drug washout measured after 2 days relative to positive control; type: toxicity, organism-based; settings: salmonella enterica subsp. enterica serovar typhimurium, 1.5 h
Plasmodium falciparum [32] = experiment: Antiplasmodial activity against chloroquine-resistant Plasmodium falciparum W2 infected in human RBC after 72 hrs by parasite lactate dehydrogenase assay; type: functional, organism-based; settings: W2, 72 h
Heart [33] = experiment: Cardiotoxicity against Sprague-Dawley rat Langendorff perfused heart assessed as atrioventricular conduction time at 10 uM by electrophysiological analysis (reference value: 42.67 2.29 ms); type: toxicity, tissue-based

`Clc1ccc(C(Nc2ccnc3cc(Cl)ccc23)c2ccc(CN3CCNCC3)cc2)cc1` (racemic) gave a pIC50 (Plasmodium falciparum [1]) of 7.21, an Activity (Salmonella typhimurium [2]) of 4% and an MSD (Plasmodium berghei [3]) of 29 days. The Time (Heart [4]) was 17 ms, the “Ratio IC50” value (Plasmodium falciparum [5]) was 0.93 and the Activity (Heart [6]) was 233.54 bpm. The inhibition [7] was “Active”, the Vd/F [8] was 153 L/kg and the Activity (Plasmodium berghei [9]) was “inactive”. It also gave an Activity (Heart [10]) of 116.31 bpm, an Activity (Salmonella typhimurium [11]) of 4% and an Activity (Salmonella typhimurium [12]) of 13%. For the same compound, the Activity (Salmonella typhimurium [13]) was 27%, the Time (Heart [14]) was 75.67 ms and the Activity (Plasmodium berghei [15]) was 99.8%. The Activity (Plasmodium berghei [16]) was 99.5%, the Activity (Salmonella typhimurium [17]) was 19% and the Time (Heart [18]) was 14 ms. The “Ratio IC50” value (Plasmodium falciparum [19]) was 1.3, the Activity (Plasmodium berghei [20]) was “Active” and the CC50 at 24 h [21] was 1800 nM. The Time (Heart [22]) was 14.18 ms, the half-life [23] was 29 h and the Time (Heart [24]) was 256.97 ms. The Activity (Salmonella typhimurium [25]) was 4%, the Time (Heart [26]) was 76.5 ms and the CL/F [27] was 82 mL/min/kg. It also gave an Activity (Plasmodium berghei [28]) of 99.7%, an MSD (Plasmodium berghei [29]) of 30 days and an MSD (Plasmodium berghei [30]) of 15.8 days. The Activity (Salmonella typhimurium [31]) was 6%, the pIC50 (Plasmodium falciparum [32]) was 7.24 and the Time (Heart [33]) was 50.56 ms.
